The values below come from EP1932513A2, “Compounds for improving the visual appearance of the skin” (Henkel AG & Co. KGaA, priority 2006, dated 2008).

One assay concerns Proteasom. Description: Proteasome activity (suc-LLVY-MCA hydrolysis) in lysate of treated fibroblasts. The assay is classed as cell-based, menschlich. The procedure:
(§1) Dermale Fibroblasten (isoliert aus menschlicher Vorhaut) wurden bei 37°C und 5 Vol.-% CO2 mit Dulbecco's Minimal Essential Medium High Glucose unter Zusatz von 1 Gew.-% Glutamax, 1 Gew.-% Penicillin/Streptomycin und 10 Gew.-% fetalem Kälberserum kultiviert. Zur UV-A Bestrahlung mittels eines Teilkörperbestrahlungshimmels Typ Sellamed 2000 (Dr. Sellmeier; Bestrahlungsspektrum: 340-400 nm, Maximum: 360-380 nm) wurden die Zellen in Petrischalen ausplattiert (ca. 3,8 x 10^4 Zellen/cm^2; zuzüglich 2 Tage Wachstum, danach noch subkonfluent), das Zellmedium abgesaugt, die Zellen einmal mit PBS gewaschen und die UV-A Bestrahlung anschließend in PBS durchgeführt (Dosierung über Zeitintervall bis zu 14min bei […]). Nach UV-A Bestrahlung und Entfernung des PBS wurden die Zellen wieder mit Zellmedium versetzt und bis zur Zellernte bei 37°C, 5 Vol.-% CO2 aufbewahrt. Nach Zelltrypsinierung und -schabung erfolgte unter Zusatz von hypotonem Salzpuffer (10 mM HEPES, 24 mM KCl, 10 mM MgCl2, pH 7,5) und Anwendung der Frier-Tau-Technik die Herstellung des Zelllysats. Nicht lysierte Zellen sowie Membranen und Zellkerne wurden durch zehnminütige Zentrifugation bei 14000 rpm und 4°C abgetrennt.
(§2) Getestete Substanzen: • Natriumascorbylphosphat (0,025 mg/ml), BASF, entsprechend einem Aktivsubstanzgehalt in der Testlösung von 0,0025 Gew.-% • Hypotaurin 0,25 (mg/ml), Siber Hegner (entsprechend einem Aktivsubstanzgehalt in der Testlösung von 0,025 Gew.-%) • Kombuchka (7,5 mg/ml), Sederma (entsprechend einem Aktivsubstanzgehalt in der Testlösung von 0,02 - 0,053 Gew.-%) • Glistin (0,5 mg/ml), Exsymol (entsprechend 4,5 - 5,5' 10^-4 Gew.-% Glutamylamidoethylindol in der Testlösung) • Gingkoselect Phytosome (0,15 mg/ml), Indena (entsprechend 0,9 - 1,8 · 10^-5 Gew.-% […]-Aktivsubstanz in der Testlösung), wird vom Hersteller als Antioxidans ausgelobt.
Die Behandlung der Fibroblasten mit Antioxidantien erfolgte wie unter 2.3.3. Das Zelllysat wurde mit einem Puffer, der Tris-HCl (pH=7,8 bei 37°C), KCI, Mg-Acetat, MgCl2 und Dithiothreitol enthält, versetzt. Nach Zugabe von 10µl einer 2mM Stammlösung von suc-LLVY-MCA (N-Succinyl-Leucin-Leucin-Valin-Tyrosin-4-Methyl-cumaryl-7-amid) erfolgte eine 30-minütige Inkubation bei 37°C. Anschließend wurde die Fluoreszenz des Hydrolyseprodukts MCA (4-Methyl-cumaryl-7-amid) am Fluorimeter bestimmt (Anregungswellenlänge: 390 nm, Detektionswellenlänge: 460nm) und die MCA-Konzentration unter Verwendung einer Standardreihe bestimmt.

The next assay relates to Dermale Fibroblasten. Put plainly: Protein carbonyls in vitro (ELISA) in UV-A irradiated and non-irradiated fibroblasts. The assay is classed as cell-based, menschlich. The note with it: for durch UV-A-Bestrahlung induzierter Anstieg des Proteincarbonyl-Gehalts: summary in words of the fibroblast results. The procedure: as §1, §2
Fibroblasten wurden für 16 Stunden mit Antioxidantien-haltigem Medium versetzt. Nach UV-A Bestrahlung in PBS wurden die Fibroblasten anschließend wieder für 3 Stunden mit Antioxidantien-haltigem Medium versetzt und lysiert. Die Detektion der Proteincarbonyle erfolgte per ELISA Technik nach Buss et al. mit Veränderungen nach Sitte et al.. Das Zelllysat wurde mit Dinitrophenylhydrazin versetzt, und die gebildeten Hydrazone wurden mit Hilfe des primären Antikörpers Anti-Dinitrophenyl-Rabbit-IgG detektiert. Als sekundärer Antikörper wurde der Anti-Rabbit-IgG-Antikörper (Peroxidase-konjugiert) verwendet und die Menge des gebundenen, sekundären Antikörpers nach Entwicklung mit o-Phenylendiamin und Wasserstoffperoxid detektiert.
A general note: In an ELISA, binding on a coated surface is turned into a signal by an enzyme label.

[1] abbreviates: bestrahlt (UV-A), unbehandelt bestrahlt = 23,41, unbehandelt und unbestrahlt = 100 %.
The mark [2] stands for this setting: unbestrahlt, unbehandelt = 100 %.
[3] abbreviates: bestrahlt (UV-A), unbehandelt bestrahlt = 171,43, test concentrations: Natriumascorbylphosphat 0,025 mg/ml, Hypotaurin 0,25 mg/ml, Kombuchka 7,5 mg/ml, Glistin 0,5 mg/ml, Gingkoselect Phytosome 0,15 mg/ml.

For `O=C1O[C@H]([C@@H](O)CO)C(O)=C1OP(=O)(O)O` [Natriumascorbylphosphat], the “Proteasomaktivität MW (%)” value in the assay on Proteasom (setting [1]) is reported as 33,36%; in the assay with Proteasom (setting [2]) it was 104,74%. In addition, the “Proteincarbonyl-Gehalt [%, relativ zum unbehandelten und unbestrahlten Zustand]” value was 124,18% with Dermale Fibroblasten (setting [3]) and 86,82% in the assay on Dermale Fibroblasten (unbestrahlt, unbehandelt = 100). In addition, the “durch UV-A-Bestrahlung induzierter Anstieg des Proteincarbonyl-Gehalts” value in the assay on Dermale Fibroblasten is “reduzieren”.

For `NC(CCC(=O)O)C(=O)NCCc1c[nH]c2ccccc12` (stereo not drawn) [Glistin, Glutamylamidoethylindol], the “Proteasomaktivität MW (%)” value in the assay with Proteasom (setting [1]) is on record as 24,94%; with Proteasom (setting [2]), 119,32%. Moreover, the “Proteincarbonyl-Gehalt [%, relativ zum unbehandelten und unbestrahlten Zustand]” value in the assay on Dermale Fibroblasten (setting [3]) was 139,96%; with Dermale Fibroblasten (unbestrahlt, unbehandelt = 100) it was 112,69%. Besides, in the assay on Dermale Fibroblasten, the “durch UV-A-Bestrahlung induzierter Anstieg des Proteincarbonyl-Gehalts” value is on record as “reduzieren”.

For the compound `NCCS(=O)O` [Hypotaurin], the “Proteasomaktivität MW (%)” value with Proteasom (setting [1]) was 32,9%; with Proteasom (setting [2]), 144,37%. Besides, the “Proteincarbonyl-Gehalt [%, relativ zum unbehandelten und unbestrahlten Zustand]” value is listed as 151,3% with Dermale Fibroblasten (setting [3]) and 128,32% in the assay on Dermale Fibroblasten (unbestrahlt, unbehandelt = 100). Moreover, the “durch UV-A-Bestrahlung induzierter Anstieg des Proteincarbonyl-Gehalts” value with Dermale Fibroblasten is “reduzieren”.
